US8946436B2, “Oxazolidinone compounds and their uses in preparation of antibiotics” (Sichuan Gooddoctor Pharmaceutical Group Co., Ltd., priority 2011, dated 2015)
Converted amounts (≈) assume the structure as drawn.

What was measured:
Streptococcus pyogenes = assay: MIC against clinically isolated strains, Streptococcus pyogenes; assay type: cell-based; set-up: MICmode / MICrange: unit not given here; conditions: Streptococcus pyogenes (15 strains)
Description: (§1) Standard strains, including Staphylococcus aureus ATCC29213, S. pneumoniae ATCC49619, E. faecalis ATCC29212, are all available from the American Type Culture Collection.
(§2) Clinically isolated strains: There are total 120 clinical strains of gram-positive bacterium including: 37 strains of Staphylococcus aureus (consisting of 14 strains of methicillin sensitive Staphylococcus aureus MSSA and 23 strains of methicillin resistant Staphylococcus aureus MRSA); 27 strains of Streptococcus pneumoniae (consisting of 13 strains of penicillin sensitive Streptococcus pneumoniae PSSP and 14 strains of penicillin insensitive or resistant Streptococcus pneumoniae PISP+PRSP); 15 strains of Streptococcus pyogenes; 17 strains of Streptococcus agalactiae; 24 stains of Enterococcus faecium (consisting of 12 strains of vancomycin sensitive Enterococcus faecium and 12 strains of vancomycin resistant Enterococcus faecium).
(§3) (2) Tested compounds: Compound 13f was prepared by the methods above, with potency of over 98%; Linezolid was purchased from Pfizer, with potency of 100%.
(§4) Staphylococcus and Enterococcus faecium were incubated in Mueller-Hinton agar medium (MHA medium) at 35° C. for 16-20 h; S. pneumoniae was incubated in Cation-Adjusted Mueller-Hinton Broth medium (CAMHB medium) supplemented with 2.5-5.5% (v/v) lysed horse blood (LHB) at 35° C. for 20-24 h; and Streptococcus were incubated in sheep blood-containing medium (prepared by addition of 5% defibrinated sheep blood into MHA media) at 35° C. for 20-24 h in 5% CO2 environment (CO2 incubator). Before test of the compound activity, each stock of the bacteria strains was activated and colonized in the following manner: the stock was transferred and cultured in a liquid culture medium, the culture liquid was smeared onto an agar plate with an inoculating loop to obtain bacterial colonies on the plate after incubation, and then a colony of the bacteria was chose to be suspended into the liquid culture medium for performing the test of compound activity. As a result, fresh bacteria cells were applied to the test. The standard strains were used as sensitive bacterium to control the quality of the experiments, and a plate or tube containing no antibacterial compounds is used as a blank control for the growth of test strains.
(§5) The minimal inhibitory concentration (MIC) of the test compounds on the strains of Streptococcus pneumoniae was determined by a standard broth macrodilution method, while the MIC of the test compounds on the other bacteria stains was determined by standard agar double dilution methods. […] The MIC of the test compound to each strain of the bacteria was determined.

PNSP = assay: MIC against clinically isolated strains, PNSP; assay type: cell-based, penicillin insensitive or resistant Streptococcus pneumoniae; set-up: MICmode / MICrange: unit not given here; conditions: PNSP (14 grains)
Description: as §1, §2, §3, §4, §5

MRSA [1] = assay: Minimum bactericidal concentration (MBC) test, MRSA; assay type: cell-based, methicillin resistant Staphylococcus aureus
Experimental: as §4
(§6) The minimal inhibitory concentration (MIC) of the test compounds on the strains of Streptococcus pneumoniae was determined by a standard broth macrodilution method, while the MIC of the test compounds on the other bacteria stains was determined by standard agar double dilution methods. The concentration of the test compounds was in the range of 32 mg/L-0.016 mg/L. The bacterial suspensions to be tested were inoculated by a multipoint inoculator, and the inoculation amount at each point is 10^4 CFU. The MIC of the test compound to each strain of the bacteria was determined.
(§7) The MBC was determined by a tube double dilution method. Solutions of the test compounds was prepared and serially diluted. Each of the solutions was mixed with a bacterium suspension (10^6 CFU/mL), and then was incubated at 35° C. overnight. […]

gram-positive bacteria [2] = assay: MBC test, 10 strains of clinically isolated gram-positive bacteria; assay type: cell-based
Experimental: In order to investigate whether the antibacterial activity of Compound 13f is bacteriostatic or bactericidal to gram-positive bacteria, we tested its MBC on 10 strains of gram-positive bacteria (established by clinical isolation), results as shown in Table 4.
(§8) The MBC was determined by a tube double dilution method. Solutions of the test compounds was prepared and serially diluted. Each of the solutions was mixed with a bacterium suspension (10^6 CFU/mL), and then was incubated at 35° C. overnight. 0.1 mL of the culture supernatant of each tubes was inoculated on a plate containing no antibiotics, and then incubated at 35° C. for 18 h.

PSSP [3] = assay: Minimum bactericidal concentration (MBC) test, PSSP; assay type: cell-based, penicillin sensitive Streptococcus pneumoniae; conditions: strain 09G343, PSSP
Experimental: as §4, §6, §7

MSSA [4] = assay: MIC against clinically isolated strains, MSSA; assay type: cell-based, methicillin sensitive Staphylococcus aureus; set-up: MICmode / MICrange: unit not given here; conditions: MSSA (14 strains)
Description: as §1, §2, §3, §4, §5

VRE = assay: Minimum bactericidal concentration (MBC) test, VRE; assay type: cell-based, vancomycin resistant Enterococcus faecium
Experimental: as §4, §6, §8

MRSA [5] = assay: MIC against clinically isolated strains, MRSA; assay type: cell-based, methicillin resistant Staphylococcus aureus; set-up: MICmode / MICrange: unit not given here; conditions: MRSA (23 strains)
Description: as §1, §2, §3, §4, §5

VSE = assay: Minimum bactericidal concentration (MBC) test, VSE; assay type: cell-based, vancomycin sensitive Enterococcus faecium
Experimental: as §4, §6, §8

MSSA [6] = assay: Minimum bactericidal concentration (MBC) test, MSSA; assay type: cell-based, methicillin sensitive Staphylococcus aureus; conditions: for MIC: MSSA
Experimental: as §4, §6, §8

PNSSP = assay: Minimum bactericidal concentration (MBC) test, PNSSP; assay type: cell-based, Streptococcus pneumoniae; conditions: strain 09J699, PNSSP
Experimental: as §4, §6, §7

gram-positive bacteria [7] = assay: MIC against 120 strains of clinically isolated gram-positive bacteria; assay type: cell-based; conditions: 120 clinically isolated gram-positive strains
Description: In order to further study the antibacterial spectrum of Compound 13f, we tested in vitro inhibitory activity of compound 13f on 120 strains of gram-positive bacteria established by clinical isolation, and the MIC values were shown in Table 3.
as §2, §5

PSSP [8] = assay: MIC against clinically isolated strains, PSSP; assay type: cell-based, penicillin sensitive Streptococcus pneumoniae; set-up: MICmode / MICrange: unit not given here
Description: as §1, §2, §3, §4, §5

[9] = Enterococcus, strain 09ZB145, VRE
[10] = Enterococcus faecium, strain 09D263, VSE
[11] = Staphylococcus aureus, strain 09U035, MSSA
[12] = Streptococcus pneumoniae, PSSP (13 strains)

In the case of `CC(=O)NC[C@H]1CN(c2ccc(-n3cc(-c4ccccn4)cn3)c(F)c2)C(=O)O1` [Compound 13f, (S)-N-((3-(3-fluoro-4-(4-(pyridin-2-yl)-1H-pyrazol-1-yl)phenyl)-2-oxooxazolidin-5-yl)methyl)acetamide], the MIC50 (Streptococcus pyogenes) is reported as 0.25 ng/mL (≈ 0.632 nM), the MIC90 (Streptococcus pyogenes) is reported as 0.5 ng/mL (≈ 1.26 nM) and the MICmode (Streptococcus pyogenes) is reported as 0.25. The MICrange (Streptococcus pyogenes) was 0.25-0.5, the MICmode (PNSP) was 0.5 and the MICrange (PNSP) was 0.5-1. The MIC50 (PNSP; Streptococcus pneumoniae) was 0.5 ng/mL (≈ 1.26 nM), the MIC90 (PNSP; Streptococcus pneumoniae) was 1 ng/mL (≈ 2.53 nM) and the MBC/MIC (MRSA [1]; strain 09L075, MRSA) was 2. It also gave an MIC value (MRSA [1]; strain 09L075, MRSA) of 2 ng/mL (≈ 5.06 nM), an MBC/MIC (MRSA [1]; strain 09N120, MRSA) of 1 and an MBC/MIC ratio (gram-positive bacteria [2]; 3 of 4 tested strains of E. faecalis) of 4. For the same compound, the “ratio of MBC/MIC” value (gram-positive bacteria [2]; Staphylococcus sp. and Streptococcus pneumoniae) was 1-2, the “ratio of MBC/MIC” value (gram-positive bacteria [2]; all the 10 tested strains) was no more than 4 and the bacteriostatic or bactericidal (gram-positive bacteria [2]; all the 10 tested strains, MBC/MIC ≦4) was “bactericidal effect”. It also gave an MBC (PSSP [3]; Streptococcus pneumoniae) of 1 ng/mL (≈ 2.53 nM), an MIC (PSSP [3]; Streptococcus pneumoniae) of 0.5 ng/mL (≈ 1.26 nM) and an MBC/MIC (PSSP [3]) of 2. For the same compound, the MICmode (MSSA [4]) was 1, the MICrange (MSSA [4]) was 0.5-1 and the MIC50 (MSSA [4]; Staphylococcus aureus) was 1 ng/mL (≈ 2.53 nM). It also gave an MIC90 (MSSA [4]; Staphylococcus aureus) of 1 ng/mL (≈ 2.53 nM), an MBC (VRE; [9]) of 8 ng/mL (≈ 20.2 nM) and an MIC (VRE; [9]) of 4 ng/mL (≈ 10.1 nM). The MBC value (VRE; strain 09ZB137, VRE) was 8 ng/mL (≈ 20.2 nM), the MBC/MIC (VRE; strain 09ZB137, VRE) was 2 and the MIC value (VRE; strain 09ZB137, VRE) was 4 ng/mL (≈ 10.1 nM). For the same compound, the MBC/MIC (VRE; strain 09ZB145, VRE) was 2, the MICmode (MRSA [5]) was 1 and the MICrange (MRSA [5]) was 0.5-1. For the same compound, the MIC50 (MRSA [5]; Staphylococcus aureus) was 1 ng/mL (≈ 2.53 nM), the MIC90 (MRSA [5]; Staphylococcus aureus) was 1 ng/mL (≈ 2.53 nM) and the MBC (VSE; [10]) was 8 ng/mL (≈ 20.2 nM). The MIC (VSE; [10]) was 4 ng/mL (≈ 10.1 nM), the MBC/MIC (VSE; strain 09D263, VSE) was 2 and the MBC value (VSE; strain 09H202, VSE) was 8 ng/mL (≈ 20.2 nM). The MBC/MIC (VSE; strain 09H202, VSE) was 2, the MIC value (VSE; strain 09H202, VSE) was 4 ng/mL (≈ 10.1 nM) and the MIC (MSSA [6]; Staphylococcus aureus, strain 09O077, MSSA) was 1 ng/mL (≈ 2.53 nM). It also gave an MIC (MSSA [6]; [11]) of 2 ng/mL (≈ 5.06 nM), an MBC (MSSA [6]; [11]) of 2 ng/mL (≈ 5.06 nM) and an MBC value (MSSA [6]; strain 09O077, MSSA) of 2 ng/mL (≈ 5.06 nM). For the same compound, the MBC/MIC (MSSA [6]; strain 09O077, MSSA) was 2, the MBC/MIC (MSSA [6]; strain 09U035, MSSA) was 1 and the MBC (PNSSP; Streptococcus pneumoniae) was 2 ng/mL (≈ 5.06 nM). For the same compound, the MIC (PNSSP; Streptococcus pneumoniae) was 1 ng/mL (≈ 2.53 nM), the MBC/MIC (PNSSP) was 2 and the “antibacterial activity on test strains compared with Linezolid” value (gram-positive bacteria [7]) was “almost the same with that of Linezolid”. For the same compound, the MICrange (PSSP [8]; PSSP (13 grains)) was 0.5-1, the MICmode (PSSP [8]; PSSP (13 strains)) was 1 and the MIC50 (PSSP [8]; [12]) was 1 ng/mL (≈ 2.53 nM). It also gave an MIC90 (PSSP [8]; [12]) of 1 ng/mL (≈ 2.53 nM).
